Converted amounts (≈) assume the structure as drawn. “And” between values parts separate entries of the source, which are not always exact repeats. Equal entries are not always repeated. Where two headings read alike, the source gives them in different places. Marks after values point to notes of the source that are not given here. Where a SMILES comes first, the peptide text is derived from it. Bridges are numbered along the chain shown (N, C = ends). [ ]: non-standard residue; d: D form. The star is where a group is joined. X1 = CC[C@H](C)CCCCC(=O)*; Dab = NCC[C@H](N)C(=O)O
Columns and labels:
E. coli BW25113 WT = test: MIC, broth microdilution, BW25113; type: cell-based, Escherichia coli; conditions: 24 h, 37 °C
[1] = test system: E. coli BW25113 ΔsbmA (sbmA::kan, JW0368); test: MIC, broth microdilution, sbmA knockout; type: cell-based, Escherichia coli; conditions: Fig. 3C, 24 h, 37 °C
[2] = test system: E. coli BW25113 ΔwaaP (waaP::kan, JW3605); test: MIC, broth microdilution, waaP knockout; type: cell-based, Escherichia coli; conditions: 24 h, 37 °C
E. coli MDR 1057 WT = conditions: 24 h, 37 °C; for Minimum Inhibitory Concentration, WT: Table 2, broth microdilution in MHB (medium ±0.9% NaCl not given), 10^6 CFU/mL suspension, agents diluted in 0.1% BSA, visible turbidity, median of at least three independent experiments in triplicate
E. coli MDR 1057 B1 = conditions: Fig. 3C, 24 h, 37 °C
E. coli MDR 1057 B2 = conditions: 24 h, 37 °C; for Minimum Inhibitory Concentration, B2: Table 2, broth microdilution in MHB (medium ±0.9% NaCl not given), 0.1% BSA, median of at least three independent experiments in triplicate
E. coli MDR 1057 B3 = conditions: 24 h, 37 °C; for Minimum Inhibitory Concentration, B3: Table 2, broth microdilution in MHB (medium ±0.9% NaCl not given), 0.1% BSA, median of at least three independent experiments in triplicate
E. coli MDR 1057 P1 = conditions: Table 2, broth microdilution in MHB (medium ±0.9% NaCl not given), 0.1% BSA, 24 h, 37 °C, median of at least three independent experiments in triplicate
[3] = test system: E. coli BW25113 ΔwaaP (pBAD-WaaP^N159H); conditions: complementation in BW25113 ΔwaaP, 0.1 g/L arabinose
[4] = test system: resistant Salmonella enterica strain (pmrB mutations); conditions: listed as PmxB; cited from earlier work
[5] = test system: extensively drug-resistant Klebsiella pneumoniae isolate; set-up: method as in PMID 30445429; conditions: serially passaged in the presence of the agent; cited from earlier work
[6] = test system: Mycobacterium smegmatis mc(2)155; test: MIC against Mycobacterium smegmatis (unpublished data); type: cell-based; conditions: authors' unpublished data
Mycobacterium phlei = test system: Mycobacterium phlei; set-up: method as in PMID 35629841; conditions: cited from earlier work
[7] = test system: septic shock-modelled rats; set-up: method as in PMID 12785015; conditions: comparable with polymyxin B; cited from earlier work
M. tuberculosis H37Rv = conditions: cited from earlier work
[8] = Fig. 3C and text, MHB +0.9% NaCl
[9] = selection in MHB without 0.9% NaCl

With CC[C@H](C)[C@H](NC(=O)[C@H](CCCNC(=N)N)NC(=O)[C@@H](N)CCCNC(=N)N)C(=O)N[C@@H](CCCNC(=N)N)C(=O)N1CCC[C@H]1C(=O)N[C@@H](CCCNC(=N)N)C(=O)N1CCC[C@H]1C(=O)N1CCC[C@H]1C(=O)N[C@@H](CCCNC(=N)N)C(=O)N[C@@H](CC(C)C)C(=O)N1CCC[C@H]1C(=O)N[C@@H](CCCNC(=N)N)C(=O)N1CCC[C@H]1C(=O)N[C@@H](CCCNC(=N)N)C(=O)N1CCC[C@H]1C(=O)N[C@@H](CCCNC(=N)N)C(=O)N1CCC[C@H]1C(=O)N[C@@H](CC(C)C)C(=O)N1CCC[C@H]1C(=O)N[C@@H](Cc1ccccc1)C(=O)N1CCC[C@H]1C(=O)N[C@@H](CCCNC(=N)N)C(=O)O [Bac7_1-22] (H-RRIRPRPPRLPRPRPRPLPFPR-OH) the “MIC, MHB +0.9% NaCl” value (E. coli BW25113 WT; [8]) was 1 µM (≈ 2.78 µg/mL), the “MIC, MHB” value (E. coli BW25113 WT; Fig. 3C, salt-free MHB) was 2 µM and the “MIC, MHB +0.9% NaCl” value ([1]; MHB +0.9% NaCl) was 16 µM (≈ 44.6 µg/mL). For the same compound, the “MIC, MHB” value ([1]; salt-free MHB) was 1 µM, the “MIC, MHB +0.9% NaCl” value [2, 8] was 1 µM (≈ 2.78 µg/mL) and the “MIC, MHB” value ([2]; Fig. 3C, salt-free MHB) was 2 µM. The “MIC, MHB +0.9% NaCl” value (E. coli MDR 1057 WT; Fig. 3C, MDR 1057 WT, MHB +0.9% NaCl, median of ≥3 experiments) was 2 µM (≈ 5.57 µg/mL), the “MIC, MHB” value (E. coli MDR 1057 WT; Fig. 3C, MDR 1057 WT, salt-free MHB, median of ≥3 experiments) was 1−2 μM and the “MIC, MHB +0.9% NaCl” value (E. coli MDR 1057 B1; MHB +0.9% NaCl) was 32 µM (≈ 89.1 µg/mL). The “MIC, MHB” value (E. coli MDR 1057 B1; salt-free MHB) was 1 µM, the “MIC, MHB +0.9% NaCl” value (E. coli MDR 1057 B2; Fig. 3C, MDR 1057 B2, MHB +0.9% NaCl) was 32 µM (≈ 89.1 µg/mL) and the “MIC, MHB” value (E. coli MDR 1057 B2; Fig. 3C, MDR 1057 B2, salt-free MHB) was 1 µM. The “Minimum Inhibitory Concentration, B2” value (E. coli MDR 1057 B2) was greater than 32 µM, the “MIC, MHB +0.9% NaCl” value (E. coli MDR 1057 B3; Fig. 3C and text, MDR 1057 B3, MHB +0.9% NaCl) was 32−64 μM and the “MIC, MHB” value (E. coli MDR 1057 B3; Fig. 3C and text, MDR 1057 B3, salt-free MHB) was 32 µM. The “Minimum Inhibitory Concentration, B3” value (E. coli MDR 1057 B3) was greater than 32 µM, the “Minimum Inhibitory Concentration, P1” value (E. coli MDR 1057 P1) was 16 * µM and the “increase in MICs for the strain expressing waaP^N159H as compared with the wild-type variant” value [3] was 4–8 fold. The “increases in MIC values after initial 3-4 passages” value (E. coli MDR 1057 strain; selection in MHB + 0.9% NaCl, strains B1 and B2) was no less than 32 fold, the “increase in MICs after 4 weeks of selection, strain B3” value (E. coli MDR 1057 strain; [9]) was 32 fold and the “increase in MICs after 4 weeks of selection, strain B4” value (E. coli MDR 1057 strain; [9]) was 4 fold. For the same compound, the “increase in minimal inhibitory concentrations (MICs), three resistant strains” value (E. coli MDR 1057 strain; serial passaging, four-week experimental evolution (abstract)) was no less than 16 fold.

With CC[C@H](C)CCCCC(=O)N[C@@H](CCN)C(=O)N[C@H](C(=O)N[C@@H](CCN)C(=O)N[C@H]1CCNC(=O)[C@H]([C@@H](C)O)NC(=O)[C@H](CCN)NC(=O)[C@H](CCN)NC(=O)[C@H](CC(C)C)NC(=O)[C@@H](Cc2ccccc2)NC(=O)[C@H](CCN)NC1=O)[C@@H](C)O [Polymyxin B] (X1-[Dab]T[Dab][Dab][Dab][dF]L[Dab][Dab]T; lactam 4-C (inferred); N-terminus assumed) the “Minimum Inhibitory Concentration, WT” value (E. coli MDR 1057 WT) was 0.125 µM, the “Minimum Inhibitory Concentration, B2” value (E. coli MDR 1057 B2) was 0.125 µM and the “Minimum Inhibitory Concentration, B3” value (E. coli MDR 1057 B3) was 8 µM. The “Minimum Inhibitory Concentration, P1” value (E. coli MDR 1057 P1; listed as PmxB) was greater than 128 µM, the “final MIC relative to initial MIC, the P2 strain” value (E. coli MDR 1057 strain; PmxB selection) was 32 × MIC and the “final MIC relative to initial MIC, the P1 strain” value (E. coli MDR 1057 strain; PmxB selection, MHB + 0.9% NaCl, 25 passages) was 2048 × MIC. The “final MIC value, the P1 strain” value (E. coli MDR 1057 strain; PmxB selection, MHB + 0.9% NaCl, 25 passages, then three passages on drug-free agar) was 128 µM, the “final MIC value, the P2 strain” value (E. coli MDR 1057 strain; PmxB selection, after final passage and three passages on drug-free agar) was 2 µM and the “MIC at start of the selection experiment” value (E. coli MDR 1057 strain; both repetitions (P1 and P2), before selection) was 0.0625 µM. For the same compound, the “MIC after a single pmrB mutation” value [4] was “up to 3 µg/mL and ≤ 4 µM” and the “increase in MIC after serial passage” value [5] was no less than 1000 fold.

With CC[C@H](C)[C@H](NC(=O)[C@H](CCCNC(=N)N)NC(=O)[C@@H](N)CCCNC(=N)N)C(=O)N[C@@H](CCCNC(=N)N)C(=O)N[C@@H](CCCNC(=N)N)C(=O)N1CCC[C@H]1C(=O)N[C@@H](CCCNC(=N)N)C(=O)N[C@@H](CC(C)C)C(=O)N1CCC[C@H]1C(=O)N[C@@H](CCCNC(=N)N)C(=O)N1CCC[C@H]1C(=O)N[C@@H](CCCNC(=N)N)C(=O)N[C@H](C(=O)N1CCC[C@H]1C(=O)N[C@@H](CCCNC(=N)N)C(=O)N1CCC[C@H]1C(=O)N[C@@H](CCCNC(=N)N)C(=O)N[C@H](C(=O)N1CCC[C@H]1C(=O)N1CCC[C@H]1C(=O)N[C@@H](CCCNC(=N)N)C(=O)N[C@H](C(=O)N1CCC[C@H]1C(=O)N[C@@H](CCCNC(=N)N)C(=O)N1CCC[C@H]1C(=O)N[C@H](C(=O)N[C@@H](CC(C)C)C(=O)N1CCC[C@H]1C(=O)N1CCC[C@H]1C(=O)N1CCC[C@H]1C(=O)N[C@@H](CCCNC(=N)N)C(=O)N[C@H](C(=O)N1CCC[C@H]1C(=O)N[C@@H](Cc1ccccc1)C(=O)N1CCC[C@H]1C(=O)N[C@@H](CCCNC(=N)N)C(=O)N[C@@H](Cc1ccccc1)C(=O)N1CCC[C@H]1C(=O)N[C@@H](CCCNC(=N)N)C(N)=O)C(C)C)C(C)C)[C@@H](C)CC)[C@@H](C)CC)C(C)C [VicBac] (H-RRIRRPRLPRPRVPRPRIPPRIPRPVLPPPRVPFPRFPR-NH2; N-terminus assumed) the MIC [6] was 0.5 to 1 µM, the “Minimum Inhibitory Concentration, WT” value (E. coli MDR 1057 WT) was 1 µM and the “Minimum Inhibitory Concentration, B2” value (E. coli MDR 1057 B2) was 2 µM. The “Minimum Inhibitory Concentration, B3” value (E. coli MDR 1057 B3) was 2 µM, the “Minimum Inhibitory Concentration, P1” value (E. coli MDR 1057 P1) was 4 µM and the MIC (Mycobacterium phlei) was 0.5 to 1 µM.

In the case of “Bac7_1-35: Bac7 fragment 1-35 (RRIRPRPPRLPRPRPRPLPFPRPGPRPIPRPLPFP; Bactenecin-7; UniProt P19661 131-165, looked up, fragment)”, the “plasma LPS levels and lethality rates” value [7] is listed as “significant decrease”.

For PR-39, the concentration inhibiting growth (M. tuberculosis H37Rv) is given as “about 10 µM”.

From PMC10145973, “Genomic Insights into Bacterial Resistance to Proline-Rich Antimicrobial Peptide Bac7” (Membranes, 2023)
